Experimental data as given in PubChem BioAssay (NCI).
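In this assay, cells in 96-well plates receive the compound at five concentrations for 48 hours. Endpoints are linearly interpolated between the surrounding concentrations. Abbreviation: GI50, concentration required for 50% inhibition of growth. The concentration for full growth arrest is given as TGI.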

Columns and labels:
Test in all cases: NCI-60 cell line screen, 48 h
HT29 colon = system: HT29 colon
SF-268 CNS = system: SF-268 CNS
LOX IMVI melanoma = system: LOX IMVI melanoma
NCI-H23 lung = system: NCI-H23 lung
UACC-257 melanoma = system: UACC-257 melanoma
ACHN renal = system: ACHN renal
NCI-H460 lung = system: NCI-H460 lung
U251 CNS = system: U251 CNS
SK-MEL-2 melanoma = system: SK-MEL-2 melanoma
MCF7 breast = system: MCF7 breast
HCT-15 colon = system: HCT-15 colon
CCRF-CEM leukemia = system: CCRF-CEM leukemia
OVCAR-3 ovarian = system: OVCAR-3 ovarian
786-0 renal = system: 786-0 renal
MDA-MB-231 breast = system: MDA-MB-231 breast
SK-MEL-28 melanoma = system: SK-MEL-28 melanoma
OVCAR-4 ovarian = system: OVCAR-4 ovarian
K-562 leukemia = system: K-562 leukemia
CAKI-1 renal = system: CAKI-1 renal
MDA-MB-435 = system: MDA-MB-435
HS 578T breast = system: HS 578T breast
RXF 393 renal = system: RXF 393 renal
SR leukemia = system: SR leukemia
A549 NSCLC = system: A549 NSCLC
SK-MEL-5 melanoma = system: SK-MEL-5 melanoma
A498 renal = system: A498 renal
NCI/ADR-RES ovarian = system: NCI/ADR-RES ovarian
SN12C renal = system: SN12C renal
PC-3 prostate = system: PC-3 prostate
UACC-62 melanoma = system: UACC-62 melanoma
IGROV1 ovarian = system: IGROV1 ovarian
TK-10 renal = system: TK-10 renal
SW-620 colon = system: SW-620 colon
UO-31 renal = system: UO-31 renal
NCI-H226 lung = system: NCI-H226 lung
RPMI-8226 leukemia = system: RPMI-8226 leukemia
EKVX NSCLC = system: EKVX NSCLC
SK-OV-3 ovarian = system: SK-OV-3 ovarian
HCT-116 colon = system: HCT-116 colon
MOLT-4 leukemia = system: MOLT-4 leukemia
KM12 colon = system: KM12 colon
SF-295 CNS = system: SF-295 CNS
OVCAR-5 ovarian = system: OVCAR-5 ovarian
NCI-H522 lung = system: NCI-H522 lung
OVCAR-8 ovarian = system: OVCAR-8 ovarian
HOP-62 NSCLC = system: HOP-62 NSCLC
SNB-19 CNS = system: SNB-19 CNS
MALME-3M melanoma = system: MALME-3M melanoma
HOP-92 NSCLC = system: HOP-92 NSCLC
SF-539 CNS = system: SF-539 CNS
BT-549 breast = system: BT-549 breast
HCC-2998 colon = system: HCC-2998 colon
HL-60(TB) leukemia = system: HL-60(TB) leukemia
DU-145 prostate = system: DU-145 prostate

**Q.** How did the GI50 (HT29 colon) turn out when `O=C(Nc1cccc(-n2ccc3c(NC(=O)c4ccccc4)nccc32)c1)c1cccc(C(F)(F)F)c1` was run?
**A.** 33.2 nM

**Q.** What about the TGI (HT29 colon) of the same molecule?
**A.** 388 nM

**Q.** And the GI50 (SF-268 CNS)?
**A.** 70.9 nM

**Q.** What about the TGI (SF-268 CNS) of the same molecule?
**A.** 12400 nM

**Q.** And the GI50 (LOX IMVI melanoma)?
**A.** 83.8 nM

**Q.** And the TGI (LOX IMVI melanoma)?
**A.** 2780 nM

**Q.** And the GI50 (NCI-H23 lung)?
**A.** 68.5 nM

**Q.** What about the TGI (NCI-H23 lung) of the same molecule?
**A.** > 46200 nM

**Q.** And the GI50 (UACC-257 melanoma)?
**A.** 80.4 nM

**Q.** What about the TGI (UACC-257 melanoma) of the same molecule?
**A.** 19900 nM

**Q.** And the GI50 (ACHN renal)?
**A.** 78.2 nM

**Q.** And the TGI (ACHN renal)?
**A.** 12500 nM

**Q.** What about the GI50 (NCI-H460 lung) of the same molecule?
**A.** 35.4 nM

**Q.** What about the TGI (NCI-H460 lung) of the same molecule?
**A.** 1220 nM

**Q.** And the GI50 (U251 CNS)?
**A.** 40.2 nM

**Q.** And the TGI (U251 CNS)?
**A.** 6160 nM

**Q.** What about the GI50 (SK-MEL-2 melanoma) of the same molecule?
**A.** 54.7 nM

**Q.** And the TGI (SK-MEL-2 melanoma)?
**A.** 14300 nM

**Q.** What about the GI50 (MCF7 breast) of the same molecule?
**A.** 36.2 nM

**Q.** What about the GI50 (HCT-15 colon) of the same molecule?
**A.** 35.7 nM

**Q.** And the GI50 (CCRF-CEM leukemia)?
**A.** 35.8 nM

**Q.** And the TGI (CCRF-CEM leukemia)?
**A.** 4130 nM

**Q.** And the GI50 (OVCAR-3 ovarian)?
**A.** 20.5 nM

**Q.** What about the TGI (OVCAR-3 ovarian) of the same molecule?
**A.** 46.3 nM

**Q.** And the GI50 (786-0 renal)?
**A.** 64.5 nM

**Q.** And the TGI (786-0 renal)?
**A.** 1900 nM

**Q.** And the GI50 (MDA-MB-231 breast)?
**A.** 53.3 nM

**Q.** What about the TGI (MDA-MB-231 breast) of the same molecule?
**A.** 1290 nM

**Q.** And the GI50 (SK-MEL-28 melanoma)?
**A.** 55.8 nM

**Q.** And the TGI (SK-MEL-28 melanoma)?
**A.** 4040 nM

**Q.** What about the GI50 (OVCAR-4 ovarian) of the same molecule?
**A.** 104 nM

**Q.** And the TGI (OVCAR-4 ovarian)?
**A.** > 67700 nM

**Q.** What about the GI50 (K-562 leukemia) of the same molecule?
**A.** 39.1 nM

**Q.** And the TGI (K-562 leukemia)?
**A.** > 38200 nM

**Q.** What about the GI50 (CAKI-1 renal) of the same molecule?
**A.** 55.6 nM

**Q.** And the TGI (CAKI-1 renal)?
**A.** 3360 nM

**Q.** What about the GI50 (MDA-MB-435) of the same molecule?
**A.** 17.2 nM

**Q.** And the TGI (MDA-MB-435)?
**A.** 43 nM

**Q.** What about the GI50 (HS 578T breast) of the same molecule?
**A.** 30.5 nM

**Q.** And the TGI (HS 578T breast)?
**A.** 3280 nM

**Q.** What about the GI50 (RXF 393 renal) of the same molecule?
**A.** 18.7 nM

**Q.** What about the TGI (RXF 393 renal) of the same molecule?
**A.** 44.2 nM

**Q.** What about the GI50 (SR leukemia) of the same molecule?
**A.** 28.4 nM

**Q.** What about the GI50 (A549 NSCLC) of the same molecule?
**A.** 43 nM

**Q.** What about the TGI (A549 NSCLC) of the same molecule?
**A.** 2610 nM

**Q.** What about the GI50 (SK-MEL-5 melanoma) of the same molecule?
**A.** 34.1 nM

**Q.** What about the TGI (SK-MEL-5 melanoma) of the same molecule?
**A.** 152 nM

**Q.** What about the GI50 (A498 renal) of the same molecule?
**A.** 20 nM

**Q.** And the TGI (A498 renal)?
**A.** 77.2 nM

**Q.** What about the GI50 (NCI/ADR-RES ovarian) of the same molecule?
**A.** 32.7 nM

**Q.** And the TGI (NCI/ADR-RES ovarian)?
**A.** > 100000 nM

**Q.** And the GI50 (SN12C renal)?
**A.** 59.1 nM

**Q.** And the TGI (SN12C renal)?
**A.** > 59300 nM

**Q.** And the GI50 (PC-3 prostate)?
**A.** 43.4 nM

**Q.** What about the TGI (PC-3 prostate) of the same molecule?
**A.** > 100000 nM

**Q.** And the GI50 (UACC-62 melanoma)?
**A.** 38.6 nM

**Q.** What about the TGI (UACC-62 melanoma) of the same molecule?
**A.** 6910 nM

**Q.** What about the GI50 (IGROV1 ovarian) of the same molecule?
**A.** 84.4 nM

**Q.** What about the TGI (IGROV1 ovarian) of the same molecule?
**A.** > 46900 nM

**Q.** And the GI50 (TK-10 renal)?
**A.** 103 nM

**Q.** What about the TGI (TK-10 renal) of the same molecule?
**A.** 19400 nM

**Q.** And the GI50 (SW-620 colon)?
**A.** 41.1 nM

**Q.** And the TGI (SW-620 colon)?
**A.** 13400 nM

**Q.** What about the GI50 (UO-31 renal) of the same molecule?
**A.** 312 nM

**Q.** What about the TGI (UO-31 renal) of the same molecule?
**A.** 16000 nM

**Q.** What about the GI50 (NCI-H226 lung) of the same molecule?
**A.** 153 nM

**Q.** And the TGI (NCI-H226 lung)?
**A.** > 68600 nM

**Q.** And the GI50 (RPMI-8226 leukemia)?
**A.** 32.7 nM

**Q.** And the TGI (RPMI-8226 leukemia)?
**A.** 1170 nM

**Q.** What about the GI50 (EKVX NSCLC) of the same molecule?
**A.** 71.5 nM

**Q.** And the TGI (EKVX NSCLC)?
**A.** > 100000 nM

**Q.** What about the GI50 (SK-OV-3 ovarian) of the same molecule?
**A.** 33.1 nM

**Q.** What about the TGI (SK-OV-3 ovarian) of the same molecule?
**A.** 15100 nM

**Q.** What about the GI50 (HCT-116 colon) of the same molecule?
**A.** 36.4 nM

**Q.** What about the TGI (HCT-116 colon) of the same molecule?
**A.** 1460 nM

**Q.** What about the GI50 (MOLT-4 leukemia) of the same molecule?
**A.** 168 nM

**Q.** And the TGI (MOLT-4 leukemia)?
**A.** > 100000 nM

**Q.** And the GI50 (KM12 colon)?
**A.** 34.1 nM

**Q.** What about the TGI (KM12 colon) of the same molecule?
**A.** 1400 nM

**Q.** And the GI50 (SF-295 CNS)?
**A.** 27.8 nM

**Q.** What about the TGI (SF-295 CNS) of the same molecule?
**A.** 468 nM

**Q.** And the GI50 (OVCAR-5 ovarian)?
**A.** 239 nM

**Q.** And the TGI (OVCAR-5 ovarian)?
**A.** > 100000 nM

**Q.** What about the GI50 (NCI-H522 lung) of the same molecule?
**A.** 19.9 nM

**Q.** What about the TGI (NCI-H522 lung) of the same molecule?
**A.** 75.9 nM

**Q.** What about the GI50 (OVCAR-8 ovarian) of the same molecule?
**A.** 36 nM

**Q.** And the TGI (OVCAR-8 ovarian)?
**A.** 2430 nM

**Q.** What about the GI50 (HOP-62 NSCLC) of the same molecule?
**A.** 54.3 nM

**Q.** And the TGI (HOP-62 NSCLC)?
**A.** 16500 nM

**Q.** What about the GI50 (SNB-19 CNS) of the same molecule?
**A.** 45.3 nM

**Q.** What about the TGI (SNB-19 CNS) of the same molecule?
**A.** > 100000 nM

**Q.** What about the GI50 (MALME-3M melanoma) of the same molecule?
**A.** 46.4 nM

**Q.** What about the TGI (MALME-3M melanoma) of the same molecule?
**A.** 10400 nM

**Q.** And the GI50 (HOP-92 NSCLC)?
**A.** 281 nM

**Q.** What about the TGI (HOP-92 NSCLC) of the same molecule?
**A.** 8070 nM

**Q.** What about the GI50 (SF-539 CNS) of the same molecule?
**A.** 31.4 nM

**Q.** And the TGI (SF-539 CNS)?
**A.** 2140 nM

**Q.** What about the GI50 (BT-549 breast) of the same molecule?
**A.** 127 nM

**Q.** And the TGI (BT-549 breast)?
**A.** 1300 nM

**Q.** And the GI50 (HCC-2998 colon)?
**A.** 36.2 nM

**Q.** What about the TGI (HCC-2998 colon) of the same molecule?
**A.** > 66300 nM

**Q.** And the GI50 (HL-60(TB) leukemia)?
**A.** 34.3 nM

**Q.** What about the TGI (HL-60(TB) leukemia) of the same molecule?
**A.** 653 nM

**Q.** What about the GI50 (DU-145 prostate) of the same molecule?
**A.** 36.3 nM

**Q.** What about the TGI (DU-145 prostate) of the same molecule?
**A.** 168 nM
